{
  "source": "patent US20040122080A1",
  "about": "“Synergist combinations of retinoid receptor ligands and selected cytotoxic agents for treatment of cancer” (priority 2004, published 2004)",
  "key": {"tubulin": {"system": "tubulin", "assay": "Tubulin polymerization assay in MCF7 cells", "format": "cell-based, human", "settings": "single agent, Western blotting of soluble and polymerized tubulin", "procedure": "The effects of retinoid and paclitaxel exposure on free and polymerized tubulin levels were determined in accordance with procedures described by Giannakakou et al. (J. Biol. Chem. 1997 272:17118-17125). MCF7 cells were plated in 6 well plates in DMEM supplemented with 10% FBS and allowed to adhere overnight. Cell medium was removed the following day and the indicated compounds were added to fresh medium supplemented with 5% of charcoal stripped FBS (HyClone). The cells were grown for 3 days in the presence of the retinoids before paclitaxel was added for 1 hour. Soluble and polymerized tubulin were extracted and respective levels were assessed by Western blotting as described above using anti-(tubulin antibodies (n=2)."}, "MCF7": {"system": "MCF7", "assay": "Mitogenic assay, growth inhibition ([3H]-thymidine incorporation), retinoid/paclitaxel co-treatment", "format": "cell-based, human", "experimental": "(§1) Cellular proliferation was quantified using [^3H] thymidine incorporation. Cells were plated in 96 well plates in media containing 10% fetal bovine serum (FBS) and allowed to adhere overnight. Cell medium was removed the following day and the indicated compounds were added to fresh medium supplemented with 10% of charcoal stripped FBS (HyClone). Compound-containing medium was renewed after 3 days exposure. After 6 day treatment, 4 μCi/ml of [^3H]thymidine (NEN Life Science Products) were added to each well for 2 to 4 hours. The cells were then trypsinized and harvested on GF/B glass fiber filters. [^3H]thymidine incorporated into the DNA was measured in a scintillation Topcount counter (Packard). The results were expressed as percent inhibition compared to the DMSO vehicle."}, "OVCAR3": {"system": "OVCAR3", "assay": "Mitogenic assay, growth inhibition ([3H]-thymidine incorporation), retinoid/paclitaxel co-treatment", "format": "cell-based, human", "experimental": "as §1"}, "SQCC-Y1": {"system": "SQCC-Y1", "assay": "Mitogenic assay, growth inhibition ([3H]-thymidine incorporation), retinoid/paclitaxel co-treatment", "format": "cell-based, human", "experimental": "as §1"}, "Bcl-2": {"system": "Bcl-2", "assay": "Bcl-2 expression and phosphorylation (immunoblotting)", "format": "cell-based, human", "settings": "MCF7; single agent", "experimental": "To determine effects of RAR agonists on anchorage-dependent colony size, number and morphology, MCF7 cells were plated in 6 well plates (500 cells/well) in DMEM supplemented with 10% FBS and grown for 5 days. The medium was then removed and the compounds were added to the medium supplemented with 5% of charcoal stripped FBS (HyClone). The compound containing medium was renewed after 3 days and cultures were allowed to grow an additional 3 days. After 6 days exposure to compounds, colonies were stained with crystal violet. Colonies were counted to quantify colony area and number and photographed under light microscopy to assess effects on colony size and morphology. The results presented are representative of two independent experiments. Immunoblotting MCF-7 cellular lysates were prepared for Western blotting in accordance with procedures described by Sambrook et al. (MOLECULAR CLONING: A LABORATORY MANUAL, 2nd Ed.; Cold Spring Harbor Laboratory Press, Cold Spring Harbor, N. Y. (1989)). Cell lysates were prepared by adding 200 μl of lysis buffer (Tris-HCl, pH 6.8, 20 mM, EDTA 1 mM, NP-40 0.5%) containing a protease inhibitor cocktail (Roche) to each well of 6 well plates. […]"}, "[1]": {"system": "AP1 transcriptional activity", "assay": "AP1 reporter assay, MCF7 cells with (AP1)5x-tk-Luc", "format": "cell-based, human", "experimental": "AP1 transcriptional activity was assessed in MCF7 cells stably transfected with (AP1)5x-tk-Luc reporter gene (IGBMC, France). (AP1)5x corresponds to the collagenase gene AP1 response element repeated 5 times in tandem, tk is the minimal thymidine kinase promoter, and Luc the coding sequence of the luciferase gene. MCF7 cells were plated in 12-well plates at a density of 400,000 cells per well in DMEM supplemented with 10% FBS and allowed to adhere overnight. The next day, the medium was removed, the cells were washed with PBS and supplemented with DMEM medium containing 0.5% of charcoal stripped FBS (HyClone). […] The luciferase activity was measured by using Luc-lite system from Packard according to manufacturer's recommendations. Results are expressed as percent activity compared to PMA (10 nM) which was assigned as 100% activity. The data presented are the mean ± sem (standard error of the mean)of 3 independent experiments."}, "[2]": {"system": "Jun N-terminal Kinase (JNK)", "assay": "Jun N-terminal Kinase assay (immunoprecipitated JNK from MCF7 cells)", "format": "cell-based, human", "experimental": "Activity of JNK was measured in accordance with procedures described by Coso et al. (Cell 1995 81:1137-1146) with minor modifications. MCF-7 cells were plated in 6-well plates in DMEM supplemented with 10% FBS and allowed to adhere overnight. The next day, the cells were switched to DMEM supplemented with 0.5% charcoal-stripped FBS (HyClone) and 100 nM of indicated retinoids or 0.1% DMSO was added to the cells for 24 hours before an additional 2 to 3 hours incubation in the presence of 1 μM of paclitaxel. Cell lysates was prepared from each well as described and cleared by centrifugation. JNK was immunoprecipitated from each lysate by incubating overnight at 4° C. with 1 μg of anti-hJNK (Pharmingen) and 25 μl of protein G agarose beads (Gibco-BRL) previously washed with the lysis buffer. Immune complexes were pelleted by centrifugation 2 minutes at 10,000 rpm 4° C. and washed 3 times with PBS containing 1% NP40 and 2 mM of Na3VO4, once with 100 mM Tris-HCl pH7.5, 0.5 mM LiCl and once with Kinase Reaction Buffer (KRB: 12.5 mM MOPS pH7.5, 12.5 mM β-glycerolphosphate, 7.5 mM MgCl2, 0.5 mM EGTA, 0.5 mM NaF, 0.5 mM Na3VO4). […] The kinase reaction was terminated by adding 10 μl of Laemmli sample buffer. resolved by 10% SDS-PAGE and phosphorylated GST-c-Jun visualized by autoradiography and quantified by densitometry. […]"}, "MCF7 cells": {"system": "MCF7 cells", "assay": "Anchorage-dependent colony formation assay", "format": "cell-based, human", "settings": "for colony formation and morphology: 6 days exposure, crystal violet", "experimental": "To determine effects of RAR agonists on anchorage-dependent colony size, number and morphology, MCF7 cells were plated in 6 well plates (500 cells/well) in DMEM supplemented with 10% FBS and grown for 5 days. The medium was then removed and the compounds were added to the medium supplemented with 5% of charcoal stripped FBS (HyClone). The compound containing medium was renewed after 3 days and cultures were allowed to grow an additional 3 days. After 6 days exposure to compounds, colonies were stained with crystal violet. Colonies were counted to quantify colony area and number and photographed under light microscopy to assess effects on colony size and morphology. The results presented are representative of two independent experiments. Immunoblotting MCF-7 cellular lysates were prepared for Western blotting in accordance with procedures described by Sambrook et al. (MOLECULAR CLONING: A LABORATORY MANUAL, 2nd Ed.; Cold Spring Harbor Laboratory Press, Cold Spring Harbor, N. Y. (1989)). Cell lysates were prepared by adding 200 μl of lysis buffer (Tris-HCl, pH 6.8, 20 mM, EDTA 1 mM, NP-40 0.5%) containing a protease inhibitor cocktail (Roche) to each well of 6 well plates. The lysates were then cleared by centrifugation at 10,000 rpm, 4EC for 5 minutes and supernatants were adjusted with Laemmli sample buffer and processed by 10 or 15% SDS-polyacrylamide gel electrophoresis (PAGE), followed by transfer to nitrocellulose membranes (Biorad). Membranes were processed by standard methods and incubated with primary antibodies for 1 hour at room temperature or overnight at 4EC. Bound antibody was visualized using a goat anti-IgG secondary antibody conjugated to HRP and a chemiluminescent detection system (ECL, Amersham Pharmacia Biotech)."}, "[3]": {"system": "MCF7, OVCAR3 and SQCC-Y1 cells", "assay": "Growth inhibition, statements across the three human tumor cell lines", "format": "cell-based", "settings": "co-treatment with paclitaxel, Table 1", "experimental": "as §1"}, "[4]": {"settings": "Homo sapiens, 144 h, maximal inhibition, paclitaxel co-treated with the labelled retinoid (none = paclitaxel alone), read-out: Efficacy (percent inhibition compared with DMSO)"}},
  "data": [
    {"smiles": "CC(=O)O[C@H]1C(=O)[C@@]2(C)[C@H]([C@H](OC(=O)c3ccccc3)[C@]3(O)C[C@H](OC(=O)[C@H](O)[C@@H](NC(=O)c4ccccc4)c4ccccc4)C(C)=C1C3(C)C)[C@]1(OC(C)=O)CO[C@@H]1C[C@@H]2O", "note": "[paclitaxel]", "values": [
      {"measurement": "polymerization of tubulin", "setting": "tubulin", "value": "dose-dependent polymerization of tubulin"},
      {"measurement": "Emax", "setting": "MCF7; [4]", "value": 100, "unit": "%"},
      {"measurement": "IC50", "setting": "OVCAR3; Homo sapiens, OVCAR-3, 144 h, 6 day treatment, paclitaxel co-treated with the labelled retinoid (none = paclitaxel alone), mean of 2 to 5 experiments", "value": 0.6, "unit": "nM"},
      {"measurement": "Emax", "setting": "OVCAR3; Homo sapiens, OVCAR-3, 144 h, maximal inhibition, paclitaxel co-treated with the labelled retinoid (none = paclitaxel alone), read-out: Efficacy (percent inhibition compared with DMSO)", "value": 99, "unit": "%"},
      {"measurement": "IC50", "setting": "SQCC-Y1; Homo sapiens, 144 h, 6 day treatment, paclitaxel co-treated with the labelled retinoid (none = paclitaxel alone), mean of 2 to 5 experiments", "value": 0.16, "unit": "nM"},
      {"measurement": "Emax", "setting": "SQCC-Y1; [4]", "value": 100, "unit": "%"},
      {"measurement": "phosphorylation of Bcl-2", "setting": "Bcl-2", "value": "dose-dependent increase"},
      {"measurement": "enhancement of PMA-induced AP1 transcriptional activity", "setting": "[1]; single agent, paclitaxel 1 μM, PMA 10 nM", "value": 20, "unit": "%"},
      {"measurement": "increase in JNK activity", "setting": "[2]; single agent, paclitaxel 1 μM 2 to 3 hours, retinoids 100 nM 24 hours", "value": 2.5, "unit": "fold"}
    ]},
    {"smiles": "CC1=C(/C=C/C(C)=C/C=C/C(C)=C/C(=O)O)C(C)(C)CCC1", "note": "[ATRA, all trans retinoic acid]", "values": [
      {"measurement": "colony formation and morphology", "setting": "MCF7 cells; MCF7", "value": "impaired colony formation"},
      {"measurement": "apoptosis in treated colonies", "setting": "MCF7 cells; MCF7 colonies", "value": "high level of apoptosis"}
    ]},
    {"smiles": "Cc1cccc(C2=CC(=O)C(C)(C)c3cc4ccc(-c5ccc(C(=O)O)cc5)cc4cc32)c1", "note": "[Formula II, 4-(5,6-dihydro-5,5-dimethyl-6-oxo-8-(3-methyl-phenyl)-anthracen-2-yl)-benzoic acid]", "values": [
      {"measurement": "effect on the effective dose of paclitaxel required to induce cytotoxicity", "setting": "[3]", "value": "lowered the effective dose of paclitaxel required to induce cytotoxicity"},
      {"measurement": "colony formation and morphology", "setting": "MCF7 cells; MCF7", "value": "strongly impaired colony formation"},
      {"measurement": "sensitivity of the cells to paclitaxel", "setting": "MCF7 cells; MCF7, pre-treatment for three days", "value": "significantly enhanced the sensitivity of the cells to paclitaxel"},
      {"measurement": "effect on paclitaxel/PMA-induced AP1 activity", "setting": "[1]; combination with paclitaxel", "value": "did enhance the effects of paclitaxel/PMA or AP1 activity"},
      {"measurement": "effect on paclitaxel-induced JNK activity", "setting": "[2]; combination with paclitaxel", "value": "did not modify paclitaxel-induced JNK activity"}
    ]},
    {"smiles": "CC(C)(C)/C=C\\C1=CCC(C)(C)c2ccc(/C=C/c3ccc(C(=O)O)cc3)cc21", "note": "[Formula Ia]", "values": [
      {"measurement": "decrease of the IC50 of paclitaxel in the presence of the retinoid", "setting": "MCF7", "value": 8, "unit": "fold"},
      {"measurement": "decrease of the IC50 of paclitaxel in the presence of the retinoid", "setting": "OVCAR3", "value": 15, "unit": "fold"},
      {"measurement": "decrease of the IC50 of paclitaxel in the presence of the retinoid", "setting": "SQCC-Y1", "value": 32, "unit": "fold"},
      {"measurement": "effect on the effective dose of paclitaxel required to induce cytotoxicity", "setting": "[3]", "value": "dramatically lowered the effective dose of paclitaxel required to induce cytotoxicity"},
      {"measurement": "colony formation and morphology", "setting": "MCF7 cells; MCF7", "value": "dramatic change in the morphology of both the colonies and the cells"},
      {"measurement": "inhibition at 0.05 µM", "setting": "[1]; Homo sapiens, MCF7, at 50 nM, PMA 10 nM, 6 hours, read-out: inhibition of PMA-induced AP1 reporter activity, maximum", "value": "30 to 45", "unit": "%"}
    ]}
  ]
}
